Measurements published in ChEMBL document CHEMBL1201862, “PubChem BioAssay data set” (2004).
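Interpolation was linear, between the two tested concentrations surrounding the appropriate level; five concentrations were tested over 48 hours in 96-well plates. GI50 marks 50% less growth.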 The source made the active and inactive calls. Cut-off read from the data, not from the text of the source: active = GI50 up to about 1.1 µM and inactive = higher.

Key:
Assay in all cases: NCI anticancer screen, dose series, 48 h
CAKI-1 = system: CAKI-1
K562 = system: K562
SK-OV-3 = system: SK-OV-3
NCI-H522 = system: NCI-H522
UACC-62 = system: UACC-62
SF-539 = system: SF-539
RPMI-8226 = system: RPMI-8226
ACHN = system: ACHN
PC-3 = system: PC-3
RXF 393 = system: RXF 393
EKVX = system: EKVX
NCI-H460 = system: NCI-H460
CCRF-CEM = system: CCRF-CEM
Hs-578T = system: Hs-578T
A498 = system: A498
NCI-H23 = system: NCI-H23
MOLT-4 = system: MOLT-4
HOP-92 = system: HOP-92
LOX IMVI = system: LOX IMVI
MDA-N = system: MDA-N

Compound | GI50 (CAKI-1) | GI50 (K562) | GI50 (SK-OV-3) | GI50 (NCI-H522) | GI50 (UACC-62) | GI50 (SF-539) | GI50 (RPMI-8226) | GI50 (ACHN) | GI50 (PC-3) | GI50 (RXF 393) | GI50 (EKVX) | GI50 (NCI-H460) | GI50 (CCRF-CEM) | GI50 (Hs-578T) | GI50 (A498) | GI50 (NCI-H23) | GI50 (MOLT-4) | GI50 (HOP-92) | GI50 (LOX IMVI) | GI50 (MDA-N)
C/C(Sc1ccccc1)=C1/CCCN(Cc2ccccc2)C1 | 24.9 µM (inactive) | 18 µM (inactive) | 32.7 µM (inactive) | 15.8 µM (inactive) | 19.9 µM (inactive) | 28 µM (inactive) | 14.5 µM (inactive) | 31.4 µM (inactive) | 21.9 µM (inactive) | 16.6 µM (inactive) | 32.3 µM (inactive) | 21.8 µM (inactive) | 20.2 µM (inactive) | 16.3 µM (inactive) | 37.8 µM (inactive) | 23.9 µM (inactive) | 16.7 µM (inactive) | 17.5 µM (inactive) | 14.1 µM (inactive) | 22.6 µM (inactive)
S=C=NCc1ccccc1 [BENZYL ISOTHIOCYANATE] | 1.85 µM (inactive) | 0.697 µM (active) | 11 µM (inactive) | 1.22 µM (inactive) | 3.32 µM (inactive) | 1.82 µM (inactive) | 0.456 µM (active) | 3.99 µM (inactive) | 4.1 µM (inactive) | 1.62 µM (inactive) | 14.6 µM (inactive) | 6.27 µM (inactive) | 0.454 µM (active) | 7.08 µM (inactive) | 4.13 µM (inactive) | 3.81 µM (inactive) | 1.31 µM (inactive) | 5.77 µM (inactive) | 0.796 µM (active) | 1.18 µM (inactive)
O=P1(NCCCl)OCCCN1CCCl (stereo not given) [IFOSFAMIDE] | 287 µM (inactive) | 373 µM (inactive) | 379 µM (inactive) | 300 µM (inactive) | 363 µM (inactive) | 355 µM (inactive) | 332 µM (inactive) | > 479 µM (inactive) | > 500 µM (inactive) | 376 µM (inactive) | 352 µM (inactive) | 394 µM (inactive) | 207 µM (inactive) | > 500 µM (inactive) | 428 µM (inactive) | 417 µM (inactive) | 262 µM (inactive) | 333 µM (inactive) | 311 µM (inactive) | > 500 µM (inactive)
